Source: patent US20150104519A1, “Pharmaceutical Compositions” (Alpharma Pharmaceuticals LLC, priority 2007, published 2015)
Structures can show the parent of a compound that is named as a salt.

Columns and labels:
[1] = in comparison to a 15 mg dose of hydrocodone
[2] = cited from earlier work
[3] = tested on: mu over delta sites; conditions: cited from earlier work
[4] = tested on: morphine effects; conditions: three 100-mg doses of naltrexone; MS Contin; cited from earlier work

Molecule | Equianalgesic dose, Calculated Dose [1] [mg] | other results
COc1ccc2c3c1O[C@H]1[C@@H](O)C=C[C@H]4[C@@H](C2)N(C)CC[C@@]341 [Codeine] | 90.0 | 
COc1ccc2c3c1OC1C(=O)CC[C@H]4[C@@H](C2)N(C)CC[C@]314 (stereo partly drawn) [Hydrocodone, 4,5-epoxy-3-methoxy-17-methylmorphinan-6-one] | 15.0 | 
CN1CC[C@]23CCCC[C@H]2[C@H]1Cc1ccc(O)cc13 [Levorphanol] | 1.8 | 
CCC(=O)C(CC(C)N(C)C)(c1ccccc1)c1ccccc1 (stereo not drawn) [Methadone] | 9.0 | 
COc1ccc2c3c1OC1C(=O)CC[C@@]4(O)[C@@H](C2)N(C)CC[C@]314 (stereo partly drawn) [Oxycodone, 4,5-epoxy-14-hydroxy-3-methoxy-17-methylmorphinan-6-one] | 13.5 | 
O=C1CC[C@@]2(O)[C@H]3Cc4ccc(O)c5c4[C@@]2(CCN3CC2CC2)[C@H]1O5 [hydrochloride salt of naltrexone, Naltrexone HCl] |  | soluble in water [2]: about 100 mg/cc
O=C1CC[C@@]2(O)[C@H]3Cc4ccc(O)c5c4[C@@]2(CCN3CC2CC2)[C@H]1O5 [naltrexone] |  | blocking action, site preference [3]: strong preferential blocking action against mu over delta sites; blockade of morphine effects [4]: blocked
Meperidine | 135.0 | 
